How the values were obtained:
bedstraw = test: Test B pre/postemergence bedstraw; format: in vivo, Galium aparine
In short: (§1)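 Herbicidal effect was estimated by eye on a ten-point control scale after plants spent twelve to sixteen days in a greenhouse following soil or foliar treatment. Foliar sprays targeted plants at one to four leaves; all doses were formulated in a non-phytotoxic solvent with surfactant.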

blackgrass = test: Test B pre/postemergence blackgrass; format: in vivo, Alopecurus myosuroides
In short: as §1

surinam grass = test: Test B pre/postemergence surinam grass; format: in vivo, Brachiaria decumbens
In short: as §1

corn = test: Test B pre/postemergence corn; format: in vivo, Zea mays
In short: as §1

crabgrass = test: Test B pre/postemergence crabgrass; format: in vivo, Digitaria sanguinalis
In short: as §1

giant foxtail = test: Test B pre/postemergence giant foxtail; format: in vivo, Setaria faberii
In short: as §1

morningglory = test: Test B pre/postemergence morningglory; format: in vivo, Ipomoea hederacea
In short: as §1

rape = test: Test B pre/postemergence rape; format: in vivo, Brassica napus
In short: as §1

soybean = test: Test B pre/postemergence soybean; format: in vivo, Glycine max
In short: as §1

velvetleaf = test: Test B pre/postemergence velvetleaf; format: in vivo, Abutilon theophrasti; conditions: for Plant response rating, Velvetleaf: Rate 250 g/ha
In short: as §1

wheat = test: Test B pre/postemergence wheat; format: in vivo, Triticum aestivum; conditions: for Plant response rating, Wheat: Rate 250 g/ha
In short: as §1

wild oat = test: Test B pre/postemergence wild oat; format: in vivo, Avena fatua; conditions: for Plant response rating, Wild oats: Rate 250 g/ha
In short: as §1

purple nutsedge = test: Test B pre/postemergence purple nutsedge; format: in vivo, Cyperus rotundus
In short: as §1

rice = test: Test B flood test rice; format: in vivo, Oryza sativa
In short: (§2)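 Plants were grown to the 2-leaf stage before treatment with test chemical, then held in a greenhouse for twelve to sixteen days. Injury was visually rated against untreated controls on a 0–10 scale, where 0 is no effect and 10 is complete control.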

smallflower flatsedge = test: Test B flood test smallflower flatsedge; format: in vivo, Cyperus difformis
In short: as §2

duck salad = test: Test B flood test duck salad; format: in vivo, Heteranthera limosa
In short: as §2

[1] = Postemergence, Rate 62 g/ha, scale 0 to 10, 0 is no effect, 10 is complete control
[2] = Postemergence, Rate 250 g/ha, scale 0 to 10, 0 no effect, 10 complete control
[3] = Preemergence, Rate 62 g/ha, scale 0 to 10 (0 no effect, 10 complete control)
[4] = Preemergence, Rate 125 g/ha, scale 0 to 10 (0 no effect, 10 complete control)
[5] = Preemergence, Rate 250 g/ha, scale of 0 to 10 where 0 is no effect and 10 is complete control
[6] = Preemergence, Rate 500 g/ha, scale 0 to 10 (0 no effect, 10 complete control)
[7] = Rate 125 g/ha, Postemergence, scale 0 to 10, 0 no effect, 10 complete control
[8] = Postemergence, Rate 125 g/ha, scale of 0 to 10 where 0 is no effect and 10 is complete control
[9] = Rate 62 g/ha, Postemergence, scale of 0 to 10 where 0 is no effect and 10 is complete control
[10] = Rate 500 g/ha, Postemergence, scale 0 to 10, 0 no effect, 10 complete control
[11] = Preemergence, Rate 125 g/ha, 0 is no effect, 10 is complete control
[12] = Preemergence, scale of 0 to 10 where 0 is no effect and 10 is complete control
[13] = Postemergence, scale 0 to 10, 0 is no effect, 10 is complete control
[14] = Postemergence (flood test species), Rate 125 g/ha, scale of 0 to 10 where 0 is no effect and 10 is complete control
[15] = Rate 62 g/ha, Postemergence section, flood test species, scale of 0 to 10 where 0 is no effect and 10 is complete control
[16] = Rate 250 g/ha, Postemergence (flood test), scale 0 to 10, 0 is no effect, 10 is complete control
[17] = Rate 250 g/ha, headed Pre-emergence (flood test species), scale 0 to 10 (0 no effect, 10 complete control)
[18] = Rate 500 g/ha, headed Pre-emergence (flood test species), scale 0 to 10 (0 no effect, 10 complete control)
[19] = Rate 500 g/ha, listed under Postemergence (flood test species), scale 0 to 10, 0 no effect, 10 complete control
[20] = Rate 1000 g/ha, Pre-emergence (as headed), scale 0 to 10
[21] = Rate 2000 g/ha, Pre-emergence (as headed), scale 0 to 10

## CC(C)N(C(=O)n1oc(=O)n(C(C)C)c1=O)c1ccccc1 [Compound 113]
bedstraw; [1]
  Bedstraw plant response rating: 1
bedstraw; [2]
  Bedstraw plant response rating: 7
bedstraw; [3]
  Bedstraw plant response rating: 4
bedstraw; [4]
  Plant response rating, Bedstraw: 6
bedstraw; [5]
  Plant response rating, Bedstraw: 7
bedstraw; [6]
  Bedstraw plant response rating: 8
bedstraw; [7]
  Bedstraw plant response rating: 4
blackgrass; [8]
  Blackgrass plant response rating: 8
blackgrass; [2]
  Blackgrass plant response rating: 8
blackgrass; [3]
  Blackgrass plant response rating: 8
blackgrass; [4]
  Plant response rating, Blackgrass: 9
blackgrass; [5]
  Plant response rating, Blackgrass: 10
blackgrass; [6]
  Blackgrass plant response rating: 10
blackgrass; [9]
  Blackgrass plant response rating: 8
blackgrass; [10]
  Blackgrass plant response rating: 8
Surinam grass; [1]
  B. signalgrass plant response rating: 4
Surinam grass; [2]
  B. signalgrass plant response rating: 8
Surinam grass; [3]
  B. signalgrass plant response rating: 7
Surinam grass; [4]
  Plant response rating, B. signalgrass: 9
Surinam grass; [5]
  Plant response rating, B. signalgrass: 10
Surinam grass; [6]
  B. signalgrass plant response rating: 10
Surinam grass; [7]
  B. signalgrass plant response rating: 7
Surinam grass; Rate 500 g/ha, Postemergence, scale of 0 to 10 where 0 is no effect and 10 is complete control
  B. signalgrass plant response rating: 8
corn; [8]
  Corn plant response rating: 1
corn; [2]
  Corn plant response rating: 5
corn; [3]
  Corn plant response rating: 3
corn; [4]
  Plant response rating, Corn: 4
corn; [5]
  Plant response rating, Corn: 8
corn; [6]
  Corn plant response rating: 10
corn; [9]
  Corn plant response rating: 0
corn; [10]
  Corn plant response rating: 6
crabgrass; [8]
  Crabgrass plant response rating: 9
crabgrass; [2]
  Crabgrass plant response rating: 9
crabgrass; [3]
  Crabgrass plant response rating: 7
crabgrass; [4]
  Plant response rating, Crabgrass: 10
crabgrass; [5]
  Plant response rating, Crabgrass: 10
crabgrass; [6]
  Crabgrass plant response rating: 10
crabgrass; [9]
  Crabgrass plant response rating: 9
crabgrass; [10]
  Crabgrass plant response rating: 9
Giant foxtail; [8]
  Giant foxtail plant response rating: 9
Giant foxtail; [2]
  Giant foxtail plant response rating: 9
Giant foxtail; [3]
  Giant foxtail plant response rating: 9
Giant foxtail; [4]
  Plant response rating, Giant foxtail: 10
Giant foxtail; [5]
  Plant response rating, Giant foxtail: 10
Giant foxtail; [6]
  Giant foxtail plant response rating: 10
Giant foxtail; [9]
  Giant foxtail plant response rating: 9
Giant foxtail; [10]
  Giant foxtail plant response rating: 9
morningglory; [8]
  Morningglory plant response rating: 5
morningglory; [2]
  Morningglory plant response rating: 8
morningglory; [3]
  Morningglory plant response rating: 1
morningglory; [4]
  Plant response rating, Morningglory: 2
morningglory; [5]
  Plant response rating, Morningglory: 7
morningglory; [6]
  Morningglory plant response rating: 8
morningglory; [9]
  Morningglory plant response rating: 5
morningglory; [10]
  Morningglory plant response rating: 10
rape; [8]
  Rape plant response rating: 3
rape; [2]
  Rape plant response rating: 7
rape; [3]
  Rape plant response rating: 4
rape; [4]
  Plant response rating, Rape: 7
rape; [5]
  Plant response rating, Rape: 10
rape; [6]
  Rape plant response rating: 10
rape; [9]
  Rape plant response rating: 0
rape; [10]
  Rape plant response rating: 7
soybean; [8]
  Soybean plant response rating: 6
soybean; [3]
  Soybean plant response rating: 3
soybean; [4]
  Plant response rating, Soybean: 8
soybean; [5]
  Plant response rating, Soybean: 9
soybean; [6]
  Soybean plant response rating: 9
soybean; [9]
  Soybean plant response rating: 6
soybean; Rate 250 g/ha, Postemergence, scale 0 to 10, 0 is no effect, 10 is complete control
  Plant response rating, Soybean: 7
soybean; [10]
  Soybean plant response rating: 7
velvetleaf; [8]
  Velvetleaf plant response rating: 1
velvetleaf; [3]
  Velvetleaf plant response rating: 6
velvetleaf; [11]
  Velvetleaf plant response rating (0 to 10 scale): 7
velvetleaf; [12]
  Plant response rating, Velvetleaf: 8
velvetleaf; [6]
  Velvetleaf plant response rating: 8
velvetleaf; [9]
  Velvetleaf plant response rating: 0
velvetleaf; [13]
  Plant response rating, Velvetleaf: 7
velvetleaf; [10]
  Velvetleaf plant response rating: 8
wheat; [8]
  Wheat plant response rating: 3
wheat; [3]
  Wheat plant response rating: 2
wheat; [11]
  Wheat plant response rating (0 to 10 scale): 4
wheat; [12]
  Plant response rating, Wheat: 7
wheat; [6]
  Wheat plant response rating: 8
wheat; [9]
  Wheat plant response rating: 1
wheat; [13]
  Plant response rating, Wheat: 4
wheat; [10]
  Wheat plant response rating: 6
Wild oat; [8]
  Wild oats plant response rating: 2
Wild oat; [3]
  Wild oats plant response rating: 6
Wild oat; [11]
  Wild oats plant response rating (0 to 10 scale): 10
Wild oat; [12]
  Plant response rating, Wild oats: 10
Wild oat; [6]
  Wild oats plant response rating: 10
Wild oat; [9]
  Wild oats plant response rating: 1
Wild oat; [13]
  Plant response rating, Wild oats: 6
Wild oat; [10]
  Wild oats plant response rating: 6
Purple nutsedge; [8]
  Nutsedge plant response rating: 0
Purple nutsedge; [2]
  Nutsedge plant response rating: 0
Purple nutsedge; [3]
  Nutsedge plant response rating: 0
Purple nutsedge; [4]
  Plant response rating, Nutsedge: 0
Purple nutsedge; [5]
  Plant response rating, Nutsedge: 0
Purple nutsedge; [6]
  Nutsedge plant response rating: 0
Purple nutsedge; [9]
  Nutsedge plant response rating: 0
Purple nutsedge; [10]
  Nutsedge plant response rating: 2
rice; [14]
  Rice plant response rating: 0
rice; [15]
  Rice plant response rating: 0
rice; [16]
  Plant response rating, Rice: 0
rice; [17]
  Rice plant response rating: 0
rice; [18]
  Plant response rating, Rice: 0
rice; [19]
  Rice plant response rating: 0
rice; [20]
  Rice plant response rating: 0
rice; [21]
  Rice plant response rating: 7
Smallflower flatsedge; [14]
  S. Flatsedge plant response rating: 0
Smallflower flatsedge; Pre-emergence, Rate 1000 g/ha, scale 0 to 10 (0 no effect, 10 complete control)
  S. Flatsedge plant response rating: 0
Smallflower flatsedge; [15]
  S. Flatsedge plant response rating: 0
Smallflower flatsedge; [16]
  Plant response rating, S. Flatsedge: 0
Smallflower flatsedge; [17]
  S. Flatsedge plant response rating: 0
Smallflower flatsedge; [18]
  Plant response rating, S. Flatsedge: 0
Smallflower flatsedge; [19]
  S. Flatsedge plant response rating: 0
Smallflower flatsedge; [21]
  S. Flatsedge plant response rating: 9
Duck salad; [14]
  Ducksalad plant response rating: 0
Duck salad; [15]
  Ducksalad plant response rating: 0
Duck salad; [17]
  Ducksalad plant response rating: 0
Duck salad; [18]
  Plant response rating, Ducksalad: 0
Duck salad; [19]
  Ducksalad plant response rating: 0
Duck salad; [20]
  Ducksalad plant response rating: 1
Duck salad; [21]
  Ducksalad plant response rating: 8
Duck salad; flood test, listed under Postemergence, Rate 250 g/ha, scale 0 to 10, 0 no effect, 10 complete control
  Ducksalad plant response rating: 0
